The values that follow come from PubChem BioAssay (NCI).

Test systems include SW-620 colon; SNB-75 CNS; RXF 393 renal; UACC-62 melanoma; MOLT-4 leukemia; OVCAR-5 ovarian; UO-31 renal; SK-MEL-2 melanoma; SNB-19 CNS; COLO 205 colon.
Test in all cases: NCI anticancer screen, dose series, 48 h

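48-hour exposure; five concentrations; linearly interpolated endpoints. TGI: concentration producing complete growth inhibition.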

Take `Nn1c(Sc2nc3ccccc3c(=O)n2N)nc2ccccc2c1=O`: the TGI in the experiment on SW-620 colon was found to be 7.13 µM; in the experiment with SNB-75 CNS, 34.8 µM; with RXF 393 renal it was 25.1 µM; in the experiment with UACC-62 melanoma it was 25.6 µM; with MOLT-4 leukemia, 3.69 µM; in the experiment with OVCAR-5 ovarian, 40.6 µM. Besides, the TGI with UO-31 renal came out at 3.26 µM; in the experiment on SK-MEL-2 melanoma it was 14.3 µM; with SNB-19 CNS, 24.6 µM; in the experiment with COLO 205 colon, 28.8 µM.
On to `COc1cc2c(cc1O)CCN(C)[C@H]2Cc1ccc(Oc2c(O)c(OC)cc3c2C[C@H]2c4c(c(OC)c(OC)c(OC)c4-3)CCN2C)cc1`, for which the TGI stood at 10 µM with SW-620 colon; 9.61 µM with SNB-75 CNS; 6.46 µM with RXF 393 renal; 9.44 µM in the experiment on UACC-62 melanoma; 11 µM in the experiment on MOLT-4 leukemia; 13.2 µM in the experiment with OVCAR-5 ovarian. Also, the TGI was 9.77 µM in the experiment with UO-31 renal, 12.6 µM in the experiment with SK-MEL-2 melanoma, 12.5 µM in the experiment with SNB-19 CNS and 12.7 µM with COLO 205 colon.
On to `COc1ccc(OC)c(C[P+](c2ccccc2)(c2ccccc2)c2ccccc2)c1`, for which the TGI was above 100 µM in the experiment with SW-620 colon; 22.2 µM in the experiment on SNB-75 CNS; 25.8 µM in the experiment on RXF 393 renal; 12.8 µM with UACC-62 melanoma; above 35.3 µM with MOLT-4 leukemia; above 100 µM with OVCAR-5 ovarian. Also, the TGI with UO-31 renal was 79.4 µM; in the experiment on SNB-19 CNS, above 75 µM; in the experiment with COLO 205 colon, 2.76 µM.
Take `C=CC(OC(C)=O)c1ccc(OC(C)=O)cc1` (configuration not stated): the TGI with SNB-75 CNS is 31.5 µM; with RXF 393 renal, 28.1 µM; with UACC-62 melanoma, 28.1 µM; in the experiment on MOLT-4 leukemia it was above 44 µM; in the experiment with OVCAR-5 ovarian, 28.1 µM; in the experiment on UO-31 renal, 4.25 µM. The TGI in the experiment with SK-MEL-2 melanoma was found to be 12 µM; in the experiment with SNB-19 CNS it was 28.7 µM; in the experiment with COLO 205 colon, 12.9 µM.
Take `C/C(=N/NC(=S)N1CCN(C(=S)N/N=C(/C)c2ccccn2)CC1)c1ccccn1`: the TGI in the experiment on SW-620 colon was above 100 µM; with SNB-75 CNS, above 77.6 µM; with RXF 393 renal, 41.4 µM; with UACC-62 melanoma, above 100 µM; in the experiment on MOLT-4 leukemia, above 100 µM; with OVCAR-5 ovarian, above 100 µM. The TGI with UO-31 renal is above 76.7 µM; in the experiment with SK-MEL-2 melanoma it was above 100 µM; with SNB-19 CNS it was above 100 µM; with COLO 205 colon it was above 100 µM.
For the molecule `Cc1nc2c(n1-c1ccccc1)C(=O)c1ccccc1C2=O`, the TGI with SW-620 colon, in the experiment on SNB-75 CNS, in the experiment with RXF 393 renal, in the experiment on UACC-62 melanoma, with MOLT-4 leukemia and in the experiment on OVCAR-5 ovarian was above 100 µM in each case. The TGI in the experiment on UO-31 renal, in the experiment with SK-MEL-2 melanoma and in the experiment on SNB-19 CNS was above 100 µM each time.
With `CCn1c(=O)c2c3ccc(OC(C)=O)cc3[nH]c2c2ccc(OC(C)=O)cc21`, the TGI in the experiment with SW-620 colon was above 100 µM; in the experiment on SNB-75 CNS, 89.5 µM; in the experiment with RXF 393 renal it was above 100 µM; in the experiment with UACC-62 melanoma, above 100 µM; in the experiment with MOLT-4 leukemia, 74.5 µM; in the experiment on OVCAR-5 ovarian, above 100 µM. Also, the TGI in the experiment on UO-31 renal, in the experiment with SNB-19 CNS and with COLO 205 colon was above 100 µM each time.
Regarding `COc1ccccc1NC(=S)N/N=C/c1ccccn1`, the TGI in the experiment on SW-620 colon was above 46.4 µM; in the experiment on SNB-75 CNS, 24.4 µM; in the experiment on RXF 393 renal, 94.1 µM; with UACC-62 melanoma, 3.75 µM; in the experiment on OVCAR-5 ovarian it was above 46.4 µM; in the experiment with UO-31 renal, 24.4 µM. Besides, the TGI is 29.5 µM in the experiment with SK-MEL-2 melanoma, above 46.4 µM with SNB-19 CNS and above 16 µM with COLO 205 colon.
Consider `COc1cccc(NC(=O)CC(=O)N2N=C(C)C(N=Nc3ccc(C(=O)O)cc3)C2=O)c1` (configuration not stated), for which the TGI was above 100 µM in the experiment on SW-620 colon; 45.1 µM in the experiment on SNB-75 CNS; above 100 µM in the experiment on RXF 393 renal; above 100 µM with UACC-62 melanoma; above 100 µM in the experiment on OVCAR-5 ovarian; above 100 µM in the experiment with UO-31 renal. Moreover, the TGI with SK-MEL-2 melanoma, in the experiment with SNB-19 CNS and in the experiment on COLO 205 colon was above 100 µM each time.
As for `C[C@]12CCC(=O)C=C1CC[C@@H]1[C@@H]2[C@@H](O)C[C@@]2(C)[C@H]1CC[C@]2(O)C(=O)COC(=O)CCC1CCCC1`, the TGI in the experiment on SW-620 colon, with SNB-75 CNS, in the experiment on RXF 393 renal, in the experiment with UACC-62 melanoma, in the experiment with MOLT-4 leukemia and with OVCAR-5 ovarian was above 100 µM throughout. For the same molecule, the TGI with UO-31 renal, in the experiment with SNB-19 CNS and in the experiment on COLO 205 colon was above 100 µM in each case.
With `O=NN1CCCS1(=O)=O`, the TGI in the experiment on SW-620 colon, in the experiment on SNB-75 CNS, with RXF 393 renal, in the experiment on UACC-62 melanoma, in the experiment on MOLT-4 leukemia and in the experiment with OVCAR-5 ovarian was above 100 µM throughout. Further, the TGI in the experiment with UO-31 renal, with SNB-19 CNS and in the experiment on COLO 205 colon was above 100 µM in each case.
As to `CCCCCCCCCCCCCCCCCCNC(=O)OCC(CNS(=O)(=O)CCC[n+]1cccc2ccccc21)COC` (configuration not stated), the TGI in the experiment on SW-620 colon is 11.8 µM; in the experiment on SNB-75 CNS it was 6.84 µM; in the experiment with RXF 393 renal, 55.8 µM; with UACC-62 melanoma, 8.21 µM; in the experiment with MOLT-4 leukemia, above 100 µM; with OVCAR-5 ovarian, 6.09 µM. The TGI with UO-31 renal is above 75.1 µM; with SNB-19 CNS it was 6.13 µM.
Regarding `O=c1c(O)cccn1C1OC(CO)C(O)C1O` (configuration not stated), the TGI in the experiment on SNB-75 CNS, with RXF 393 renal, in the experiment with UACC-62 melanoma, in the experiment with OVCAR-5 ovarian, in the experiment with UO-31 renal and in the experiment on SK-MEL-2 melanoma was above 100 µM each time. For the same molecule, the TGI with SNB-19 CNS and in the experiment with COLO 205 colon was above 100 µM each time.
In the case of `O=C(O)CCSC1=NCCN1`, the TGI in the experiment with SW-620 colon, in the experiment on SNB-75 CNS, in the experiment on RXF 393 renal, in the experiment on UACC-62 melanoma, with OVCAR-5 ovarian and in the experiment on UO-31 renal was above 100 µM in each case. Besides, the TGI in the experiment with SK-MEL-2 melanoma, with SNB-19 CNS and in the experiment with COLO 205 colon was above 100 µM throughout.
